Here are results for 18 molecules from patent US11236111B2, “Hepatitis B antiviral agents” (Enanta Pharmaceuticals, Inc., priority 2019, dated 2022).

Each structure is given as a SMILES string.

One data set deals with HBV. Nature of the data set: HepAD38 anti-HBV assay: reduction of viral product accumulation (virion DNA by qPCR, HBsAg or HBeAg by ELISA). The conditions noted are these: Hepatitis B virus, 120 h, HepAD38 cells, harvest five days after compound addition, 50% reduction of viral product vs no drug controls. In kind it is cell-based. As for the experimental part:
Methods: HepAD38 cells are maintained as previously reported (Ladner et al, Antimicrob. Agents Chemother. 1997, […], 1715). Briefly, cells are passaged upon attaining confluency in DMEM/F12 media in the presence of 10% FBS, Penn/Strep, 250 μg/mL G418, and 1 μg/ml tetracycline. Novel compounds are screened by first washing cells three times with PBS to remove tetracycline, and plating in 96 well plates at 35,000 cells/well. Compounds dissolved in DMSO are then diluted 1:200 into wells containing cells. Five days after compound addition, material is harvested for analysis. For an extended 8 day analysis, cells are plated and treated as described above, but media and compound are refreshed on d2 and d5 post initial treatment.
On harvest day, virion DNA is obtained by lysing with Sidestep Lysis and Stabilization Buffer and then quantified via quantitative real time PCR. Commercially available ELISA kits are used to quantitate the viral proteins HBsAg (Alpco) or HbeAg (US Biological) by following the manufacturer's recommended protocol after diluting samples to match the linear range of their respective assays. Irrespective of readout, compound concentrations that reduce viral product accumulation in the cell lysates or supernatants by 50% relative to no drug controls (EC50) are reported; EC50 ranges are as follows: A<0.1 μM; B 0.1-0.4 μM; C>0.4 μM.
A general note: In qPCR the cycle at which signal appears reflects the starting amount.

Data set [1] in a line: Compound toxicity, total ATP levels (ATPLite). In kind it is cell-based. The conditions noted are these: human, HepG2 cells; three days after compound addition; 50% reduction of total ATP vs no drug controls. The protocol:
Compound toxicity is evaluated by seeding cells at 15,000 cells/well and treating with compound as described above.
In general terms: In ATP-based viability assays light output follows the ATP content of the culture.

A word on the EC50: it is the concentration needed to bring the measured effect to its halfway point. Lower therefore signals higher potency in that assay. Regarding `C=CCN1C[C@@]2(CC3=C(c4ccn(C(F)F)n4)[C@H](c4ccc(F)cc4Cl)N=C(c4nccs4)N3C2)NC1=O` [Example 4], the concentration for a half-maximal effect (EC50) with HBV (class symbols) was less than 100 nM.
Still for that read-out and setting: for `C#CCN1CC2(CC3=C(c4ccn(C(F)F)n4)[C@H](c4ccc(F)cc4Cl)N=C(c4nccs4)N3C2)OC1=O` (stereo partly shown) [Example 1] the value was more than 400 nM.
`O=C1N[C@@]2(CO1)CC1=C(c3ccn(C(F)F)n3)[C@@H](c3ccc(F)c(F)c3)N=C(c3nccs3)N1C2` [Example 16]: in the data set with HBV (given as numeric bound), the EC50 is more than 100 nM.
Usually CC50 stands for the concentration at which the toxic effect on the cells reaches its halfway point. Low readings indicate greater toxicity to the cells, high ones lower toxicity to the cells. As to `O=C1N[C@@]2(CO1)CC1=C(c3cnn(C(F)F)n3)[C@H](c3ccc(F)cc3Cl)N=C(c3nccs3)N1C2` [Example 6], the EC50 in the data set with HBV (class symbols) is less than 100 nM. The molecule also registered a CC50 at 3 days in data set [1] of more than 25000 nM.
Molecule `O=C1OC2(CC3=C(c4ccn(C(F)F)n4)[C@H](c4ccc(F)cc4Cl)N=C(c4nccs4)N3C2)CN1Cc1ccccc1` (stereo partly shown) [Example 3] gave a concentration giving a half-maximal response (EC50) in the data set with HBV (class symbols) of more than 400 nM.
With `O=C1N[C@@]2(CO1)CC1=C(c3ccn(C(F)F)n3)[C@H](c3ccc(Cl)c(F)c3)N=C(c3nccs3)N1C2` [Example 7], the concentration giving a half-maximal response (EC50) in the data set with HBV (class symbols) was less than 100 nM. The same molecule had a CC50 at 3 days in data set [1] of more than 25000 nM.
The molecule `O=C1N[C@@]2(CO1)CC1=C(c3ccn(C(F)F)n3)[C@H](c3ccc(Cl)c(F)c3)N=C(c3ccccn3)N1C2` [Example 17] came in with an EC50 in the data set with HBV (given as numeric bound) of more than 100 nM.
Same read-out and setting: for `O=C1N[C@]2(CO1)CC1=C(c3ccn(C(F)F)n3)[C@@H](c3ccc(Cl)c(F)c3)N=C(c3nccs3)N1C2` [Example 14] the value was more than 100 nM.
Same read-out and setting: for `O=C1N[C@@]2(CO1)CC1=C(c3ccn(C(F)F)n3)[C@@H](c3ccc(Cl)c(F)c3)N=C(c3ccccn3)N1C2` [Example 18] the value was more than 100 nM.
As for `COC(=O)C1=C2C[C@@]3(COC(=O)N3)CN2C(c2nccs2)=N[C@H]1c1ccc(Cl)c(F)c1` [Example 11], the EC50 in the data set on HBV (class symbols) was less than 100 nM.
As for `O=C1N[C@]2(CO1)CC1=C(c3ccn(C(F)F)n3)[C@H](c3ccc(Cl)c(F)c3)N=C(c3nccs3)N1C2` [Example 13], the EC50 in the data set on HBV (class symbols) was less than 100 nM. Moreover, the cytotoxic concentration (CC50) at 3 days in data set [1] is more than 25000 nM.
For `O=C1N[C@@]2(CO1)CC1=C(c3ccn(C(F)F)n3)[C@@H](c3ccc(Cl)c(F)c3)N=C(c3nccs3)N1C2` [Example 8], the EC50 in the data set on HBV (given as numeric bound) is more than 100 nM.
The molecule `COC(=O)C1=C2C[C@@]3(COC(=O)N3)CN2C(c2nccs2)=N[C@@H]1c1ccc(Cl)c(F)c1` [Example 12] came in with a concentration giving a half-maximal response (EC50) in the data set with HBV (given as numeric bound) of more than 100 nM.
The molecule `C=CCN1C[C@]2(CC3=C(c4ccn(C(F)F)n4)[C@H](c4ccc(F)cc4Cl)N=C(c4nccs4)N3C2)NC1=O` [Example 5] returned an EC50 in the data set with HBV (class symbols) of 100 to 400 nM.
Same read-out and setting: for `C=CCN1CC2(CC3=C(c4ccn(C(F)F)n4)[C@H](c4ccc(F)cc4Cl)N=C(c4nccs4)N3C2)OC1=O` (stereo partly shown) [Example 2] the value was more than 400 nM.
Regarding `O=C1N[C@@]2(CO1)CC1=C(c3cnn(C(F)F)c3)[C@@H](c3ccc(Cl)c(F)c3)N=C(c3nccs3)N1C2` [Example 10], the EC50 with HBV (given as numeric bound) is more than 100 nM.
The molecule `O=C1N[C@@]2(CO1)CC1=C(c3cnn(C(F)F)c3)[C@H](c3ccc(Cl)c(F)c3)N=C(c3nccs3)N1C2` [Example 9] returned a 50% effective concentration (EC50) in the data set with HBV (class symbols) of less than 100 nM.
Regarding `O=C1N[C@@]2(CO1)CC1=C(c3ccn(C(F)F)n3)[C@H](c3ccc(F)c(F)c3)N=C(c3nccs3)N1C2` [Example 15], in the data set on HBV (class symbols), the EC50 was less than 100 nM. In data set [1], the CC50 at 3 days is more than 25000 nM.
